Laboratory results taken from US12161694B2, “Methods and compositions for regulating innate lymphoid cell inflammatory responses” (The Broad Institute, Inc., priority 2017, dated 2024).
Entries after “also recorded” stand apart in the source; their conditions may differ. Where no end group is shown, it is not given here.

Test system: eosinophils
Test: Eosinophils in lung parenchyma and BALF after in vivo treatment (flow cytometry)
Parameters: species or system mouse
Experimental: Mice and in vivo ILC activation. C57Bl/6J mice were purchased from the Jackson Laboratory. Nmur1-LacZ reporter mice with a LacZ cassette knocked into the Nmur1 locus were rederived from Nmur1^tm1.1(KOMP)Vleg sperm obtained from the trans-NIH Knock-Out Mouse Project (KOMP) Repository. Mice were housed under specific-pathogen-free conditions. For experiments, mice were matched for sex and age, and most mice were 6-10 weeks old. […] The total administered volume was 20 μl for all conditions. Mice were randomly assigned to treatment groups after matching for sex and age. […] Mice were treated intranasally with 10 μg HDM on day 0, 7, 8, and 9, prior to sacrifice on day 10. All experiments were conducted in accordance with animal protocols approved by the Harvard Medical Area Standing Committee on Animals or BWH IACUC.
Flow cytometry. […] Cells were stained on ice with antibodies for surface molecules and the live/dead marker 7AAD and analyzed on a LSRFortessa (BD Biosciences). […]
Lung analysis. […] BALF was centrifuged, and the supernatant was used for analyzing cytokine levels and the cell pellet was resuspended, counted, and used for flow cytometry. […] Where indicated, cells were diluted in 10% Trypan Blue and viable cells counted using a hemocytometer. […]

Neuromedin U (FRVDEEFQSPFASQSRGYFLFRPRN-NH2; listed as Homo sapiens) [NMU, neuropeptide ligand of Nmur1 (US Biological)]
eosinophils in BALF (intranasal daily for 3 days (500 ng IL-25, 20 μg NMU)): only a mild increase; also recorded: small increase
eosinophils in lung parenchyma (intranasal daily for 3 days (500 ng IL-25, 20 μg NMU; FIG. 11: 250 ng IL-33, 10 μg NMU)): did not increase
